Consider 5 compounds from patent US6743798B1, “Substituted pyrazole derivatives condensed with six-membered heterocyclic rings” (Bayer Aktiengesellschaft, priority 1998, dated 2004).

Usually IC50 stands for the concentration that gives 50% inhibition. The melting point is the temperature of the solid-liquid transition.

Data set [1] has as its system soluble guanylate cyclase. The data set is described as follows: Stimulation of soluble guanylate cyclase in primary endothelial cells. The note with it: for Increase in the cGMP concentration (%): test substances final concentration 1 μM, 10 minutes, primary endothelial cells from pig aortas. The data set is classed as cell-based, pig. The protocol:
Primary endothelial cells were isolated from pig aortas by treatment with collagenase soln. The cells were then cultured in culture medium at 37 °C/5% CO2 until confluence was reached. For the investigations, the cells were passaged, inoculated into 24-well cell culture plates and subcultured until reaching confluence (˜2×10^5 cells/well). For the stimulation of endothelial guanylate cyclase, the culture medium was aspirated and the cells were washed once with Ringer solution. After removing the Ringer solution, the cells were incubated for 10 minutes at 37° C./5% CO2 in stimulation buffer with or without NO donor (sodium nitroprusside, SNP or DEA/NO 1 μM). […] After the incubation time had ended, the buffer solution was aspirated and cold buffer at 4° C. was added to the cells. The cells were then lysed at −20° C. for 16 hours. The supernatants containing the intracellular cGMP were then removed and the cGMP concentration was determined by means of the cGMP-SPA system (Amersham Buchler, Brunswick).

Data set [2] deals with rabbit aortal rings preconcentrated with phenylephrine. The data set is described as follows: Vasorelaxant action in vitro. The data set is classed as cell-based. As to conditions: Oryctolagus cuniculus, read-out: IC50 [μM] vasorelaxant action. The protocol: (§1) To determine the cardiovascular action, the following investigations were carried out: In in vitro investigations on the isolated and on cells of vascular origin, the effect on guanylate cyclase-dependent cGMP formation was tested with and without NO donor. The anti-aggregatory properties were shown on human platelets stimulated with collagen. The vasorelaxant action was determined in rabbit aortal rings preconcentrated with phenylephrine. The hypotensive action was investigated in anaesthetized and awake rats.
Rabbits are anaesthetized by a blow to the neck and exanguinated. The aorta is removed, freed from adhering tissue, divided into 1.5 mm wide rings and individually transferred under a pretension into 5 ml organ baths containing a warm, carbogen-aerated Krebs-Henseleit solution at 37° C. of the following composition (mM): NaCl: 119; KCl: 4.8; CaCl2×2H2O: 1; MgSO4×7H2O; 1.4; KH2PO4: 1.2; NaHCO3: 25; glucose: 10. The contractility is detected using Statham UC2 cells, amplified and digitalized by means of A/D converters (DAS-1802 HC, Keithley Instruments Munich), and recorded in parallel on linear recorders. To produce a contraction, phenylephrin is added to the bath cumulatively in increasing concentration. […]

Data set [3] has as its system anaesthetized rats. Kind of data set: Blood pressure measurements in anaesthetized rats. In kind it is in vivo, rat. The protocol: Male Wister rats having a bodyweight of 300-350 g are anaesthetized with Thiopental (100 mg/kg i.p.). After tracheotomy, a catheter is inserted into the femoral artery for blood pressure measurement. The substances to be tested are administered orally in Transcutol, Cremophor EL, H2O (10%/20%/70%) in a volume of 1 ml/kg.

For data set [4], the system named is human platelets stimulated with collagen. The data set is described as follows: Inhibition of platelet aggregation in vitro. The data set is classed as cell-based. As to conditions: 10 min, collagen-induced aggregation, 10 min incubation at 37° C. The protocol: as §1
To determine the platelet-aggregation, blood from healthy volunteers of both sexes was used. As an anticoagulant, 9 parts of blood were admixed to one part of 3.8% strength sodium citrate solution. The blood was centrifuged at 900 rpm for 20 min. The pH of the platelet-rich plasma obtained was adjusted to pH 6.5 using ACD solution (sodium citrate/citric acid/glucose). The platelets were subsequently centrifuged off and resuspended in buffer and once more centrifuged off. The platelet pellet was suspended in buffer and mixed with an additional 2 mmol/l of CaCl2.
To measure the aggregation, aliquots of the platelet suspension were incubated with the substance to be tested at 37° C. for 10 min.

The structures appear in SMILES notation. Like-named read-outs stand apart in the source and are kept apart here.

`CS(=O)(=O)c1cnc(-c2nn(Cc3ccccc3F)c3ncccc23)nc1N` [Example 1, 3-(4-Amino-5-methylsulphonylpyrimidin-2-yl)-1-(2-fluorobenzyl)-1H-pyrazolo[3,4-b]pyridine]: the “Increase in the cGMP concentration (%)” value in data set [1] is >1000%. Also, the IC50 in data set [2] (rabbit aorta rings, phenylephrin contraction reduced by 50%) was 0.23 µM.
For the compound `Nc1nc(-c2nn(Cc3ccccc3F)c3ncccc23)ncc1CC(F)(F)F` [Example 8], the melting point was determined as 181 °C.
Regarding `Cc1ccc(-c2nc(-c3nn(Cc4ccccc4F)c4ncccc34)ncc2C#N)cc1` [Example 14, 3-[5-Cyano-4-(4-methylphenyl)pyrimidin-2-yl]-1-(2-fluorobenzyl)-1H-pyrazolo[3,4-b]pyridine], the “Increase in the cGMP concentration (%)” value in data set [1] is >1000%.
Turning to `Nc1nc(-c2nn(Cc3ccccc3F)c3ncccc23)nc(N)c1N1CCOCC1` [Example 16, 3-(4,6-Diamino-5-N-morpholinopyrimidin-2-yl)-1-(2-fluorobenzyl)-1H-pyrazolo[3,4-b]pyridine], the “cGMP (pmol/well)” value in data set [1] (Ex. 16 0.1 μM) is given as 5.1 pmol/well; in data set [1] (Ex. 16 0.3 μM), 13.2 pmol/well; in data set [1] (Ex. 16 1.0 μM), 20.8 pmol/well; in data set [1] (Ex. 16 3.0 μM), 34.5 pmol/well; in data set [1] (Ex. 16 10 μM), 47.7 pmol/well. In addition, the IC50 is 0.2 µM in data set [2] and 0.06 µM in data set [4]. In addition, the “max. reduction in blood pressure (mm Hg)” value in data set [3] (0.3 mg/kg p.o.) was found to be 21 mm Hg; in data set [3] (1.0 mg/kg p.o.), 35 mm Hg.
Compound `NC(=O)c1cnc(-c2nn(Cc3ccccc3F)c3ncccc23)nc1N` [Example 6] had a melting point of 215 °C. Moreover, the “Increase in the cGMP concentration (%)” value in data set [1] was determined as 600%.
